Assay results taken from patent US20260308158A1, “TARGETING RNAS ASSOCIATED WITH TAUOPATHIES WITH SMALL MOLECULES” (University of Florida Research Foundation, Incorporated, priority 2023, published 2026).

Experiments:
[1] = tested on: DDPAC I17T MAPT exon 10 mini-gene luciferase reporter; assay: Luciferase reporter assay, DDPAC I17T mutant mini-gene in HeLa cells; assay type: cell-based; settings: Homo sapiens, 48 h, 5 μM (highest dose), read-out: reduction of luciferase activity
Method: Luciferase-reporter Assay to Study Exon 10 Alternative Splicing. The exon 10 mini-genes, both WT and DDPAC and mutant thereof, fused to firefly luciferase, have been previously described.^18 HeLa cells were seeded in 60 mm diameter dishes and incubated for 12-16 h to 70% confluency. They were then transfected with WT, WT+I17T, DDPAC, or DDPAC+I17T luciferase reporter minigenes using JetPrime (Polyplus Transfection) per the manufacturer's recommended protocol and incubated for 4 h. After transfection, the cells were collected by trypsinization and re-seeded in 96-well plates at 0.2×10^5 cells per well, followed by treatment of compounds after 4 h. Compound stocks prepared in DMSO were diluted in growth medium and added to cells with final DMSO concentration at 0.1% (v/v). After a 48 h treatment period, the cells were washed with 1× DPBS. Each well was added with a mixture of 10 μL WST-1 reagent and 90 μL of growth medium. After incubation at 37° C. for 45 min, absorbance was measured at 450 and 690 nm. A690 as background was subtracted from A450 to obtain A450′. […] The plate was incubated at room temperature for 20 min and the luminescence was measured with a […] plate reader (1000 ms integration time). The resulted luminescence was normalized to A450′.

[2] = biological target: WT I17T mutant RNA; assay: Fluorescent binding affinity, WT I17T mutant RNA
Method: (§1) Fluorescent Binding Affinity Measurements. Binding assays were completed as previously described.^30 Briefly, the RNA of interest was folded in 1× Assay Buffer-1 (AB1: 8 mM Na2HPO4, pH 7.0, 185 mM NaCl, and 1 mM EDTA) by heating at 95° C. for 30 s followed by slowly cooling to room temperature. Bovine serum albumin (BSA) was then added to a final concentration of 40 μg/mL to afford 1× Assay Buffer-2 (AB2: 8 mM Na2HPO4, pH 7.0, 185 mM NaCl, 1 mM EDTA, and 40 μg/mL BSA). The RNA solution was serial diluted with 1×AB2. Then, compound of interest was added to the RNA solutions to a final concentration of 0.5 μM. […] Fluorescence intensity was measured using a Tecan Plate Reader (Gain: 100, Integration time: 40 μs). […] The change in fluorescence of the small molecule was calculated by its comparison to samples lacking RNA. Binding affinity was calculated using Equation 1, as previously described:^30
(§2) where I and I0 are the measured fluorescence intensity of the compound with or without RNA, respectively, Δε is the difference between the fluorescence intensity with the infinite concentration of RNA and the fluorescence intensity without RNA, [SM]0 and [RNA]0 are the concentrations of the small molecule (SM) and RNA, respectively, and Kd is the dissociation constant.

[3] = biological target: 7-deaza-guanosine WT RNA; assay: Fluorescent binding affinity, 7-deaza-guanosine WT RNA; settings: n=3, read-out: Kd (affinity for the modified RNA)
Method: as §1, §2

[4] = tested on: DDPAC model RNA; assay: Optical melting, DDPAC RNA; assay type: binding; settings: 2 at 1.5 μM
Method: (§3) Optical Melting Experiments. The thermal stabilities of WT, DDPAC, and DDPAC+I17T model RNAs were analyzed by optical melting in the presence or absence of compound 1 or 2 as previously described.^18 The RNAs (2 μM) were heated to 95° C. in 1×PBS buffer and slowly cooled to room temperature. The samples were then cooled to 15° C. in the presence of compound 1 (10 μM; 0.1% (v/v) DMSO), 2 (1.5 μM; 0.1% (v/v) DMSO) or vehicle (0.1% (v/v) DMSO) and then heated to 85° C. at a rate of 1° C. per min. Absorbance as a function of temperature was measured at 260 nm using a Beckman Coulter DU800 UV/vis spectrophotometer. Melting curves were fitted with MeltWin 3.5.^31

[5] = tested on: DDPAC I17T model RNA; assay: Optical melting, DDPAC I17T RNA; assay type: binding; settings: 2 at 1.5 μM
Method: as §3

[6] = Plasma protein binding by equilibrium dialysis; assay type: in vitro ADME; settings: 37° C., 6 h (2 at 5 μM), read-out: free fraction in plasma
Method: Plasma and brain binding. Plasma protein binding was determined by equilibrium dialysis using a Thermo Scientific™ RED Device per the manufacturer's protocol. Each sample was prepared by addition of 2 into 100 μL plasma with final concentration of 5 μM (0.1% (v/v) DMSO). 1×PBS was used as dialysis buffer and was added into the buffer chamber. The plate was incubated with shaking at 37° C. for 6 h. The concentration of 2 in the plasma and buffer compartments was determined as described in Quantitation of 2 in Mouse Plasma and Brain. The free fraction was calculated as [buffer]/[plasma].

[7] = assay type: physicochemical; settings: not tested for this reason

## COc1cc(N)ncc1CCCN(C)CCCn1cnc2c3ccccc3n(C)c2c1=O [Compound 2, 3-(3-((3-(6-amino-4-methoxypyridin-3-yl)propyl)(methyl)amino)propyl)-5-methyl-3,5-dihydro-4H-pyrimido[5,4-b]indol-4-one]
[1]
  inhibition at 5 µM: ~15%
[2]
  Kd (estimated; no saturable binding): > 50 µM
[3]
  Kd: 3.4 ± 0.9 µM
[4]
  increase of Tm: 1.36±0.11 °C
[5]
  effect on Tm: no effect on the Tm
[6]
  fraction unbound at 6 h: 0.089 ± 0.009
[7]
  solubility at 200 μM: insolubility
